The source made the active and inactive calls.
Key:
[1] = test system: Streptococcus sp. 'group A'; test: growth inhibition of control SK(-) GAS strain, dose response, counter-screen for streptokinase expression inhibitor project, luminescence, kanamycin, BacTiterGlo, confirmation (AID 1900); type: functional, organism-based
[2] = HeLa cell cytotoxicity, dose response, cytotoxicity control for MgcRacGAP inhibitor project (AID 624300); type: functional
Streptokinase A = target: T1, Streptokinase A (Streptococcus pyogenes serotype M1, UniProt P10520); test: S. pyogenes streptokinase expression inhibitors, potency, dose response, plasminogen activation absorbance, OD405 (AID 1914); type: functional, Streptococcus pyogenes M1 GAS;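 note: secreted streptokinase activity via plasminogen activation per viability signal from cell pellet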
T1 sequence (P10520 whole entry): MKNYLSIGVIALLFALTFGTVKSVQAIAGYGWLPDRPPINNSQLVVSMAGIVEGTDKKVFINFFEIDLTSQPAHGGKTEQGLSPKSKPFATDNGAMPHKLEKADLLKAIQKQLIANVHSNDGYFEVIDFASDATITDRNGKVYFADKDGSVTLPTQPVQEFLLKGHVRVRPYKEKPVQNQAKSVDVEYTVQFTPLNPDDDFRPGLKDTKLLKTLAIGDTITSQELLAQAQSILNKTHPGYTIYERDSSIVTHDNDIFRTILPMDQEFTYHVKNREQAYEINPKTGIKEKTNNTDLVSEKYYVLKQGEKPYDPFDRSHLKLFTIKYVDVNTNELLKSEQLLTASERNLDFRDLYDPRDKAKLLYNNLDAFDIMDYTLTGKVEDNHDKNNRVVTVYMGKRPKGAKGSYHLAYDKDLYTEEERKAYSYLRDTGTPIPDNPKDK

[3] = Counterscreen for AddAB inhibitors: absorbance-based bacterial cell-based high throughput dose response assay for inhibitors of bacterial viability. [Related pubchem assays (depositor defined):AID435030, AID449728, AID449731, AID488942, AID488955, AID488956]; type: functional
Streptococcus = test: Group A Streptococcus viability loss, dose response, counter-screen for streptokinase expression inhibitor project, luminescence, BacTiterGlo (AID 1915); type: functional, organism-based;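 note: potency for reduction of bacterial viability or growth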
Exodeoxyribonuclease V = target: T2, Exodeoxyribonuclease V (Escherichia coli (strain K12), UniProt P04993+P07648+P08394); test: E. coli RecBCD inhibitors, dose response, counter-screen for AddAB inhibitor project, absorbance, V66 E. coli, mutant T4 phage (AID 492957); type: functional, cell-based, Escherichia coli str. K-12 substr. MG1655
T2 sequence (P04993 whole entry): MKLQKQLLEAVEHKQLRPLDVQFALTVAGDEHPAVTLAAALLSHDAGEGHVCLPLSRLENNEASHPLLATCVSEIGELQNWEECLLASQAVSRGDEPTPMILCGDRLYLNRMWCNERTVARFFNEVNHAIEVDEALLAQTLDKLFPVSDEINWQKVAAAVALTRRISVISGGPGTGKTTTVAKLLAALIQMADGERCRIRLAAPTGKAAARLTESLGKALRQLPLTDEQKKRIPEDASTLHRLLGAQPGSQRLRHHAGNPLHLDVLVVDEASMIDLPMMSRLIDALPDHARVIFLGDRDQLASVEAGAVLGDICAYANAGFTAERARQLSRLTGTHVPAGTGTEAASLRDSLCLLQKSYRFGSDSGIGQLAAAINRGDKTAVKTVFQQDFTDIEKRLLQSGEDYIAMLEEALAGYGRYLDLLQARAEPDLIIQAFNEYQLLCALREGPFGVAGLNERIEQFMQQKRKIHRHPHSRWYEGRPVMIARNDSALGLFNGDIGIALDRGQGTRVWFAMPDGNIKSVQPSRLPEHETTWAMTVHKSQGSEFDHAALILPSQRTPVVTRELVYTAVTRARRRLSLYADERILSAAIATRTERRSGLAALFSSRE
T2 sequence (P07648 whole entry): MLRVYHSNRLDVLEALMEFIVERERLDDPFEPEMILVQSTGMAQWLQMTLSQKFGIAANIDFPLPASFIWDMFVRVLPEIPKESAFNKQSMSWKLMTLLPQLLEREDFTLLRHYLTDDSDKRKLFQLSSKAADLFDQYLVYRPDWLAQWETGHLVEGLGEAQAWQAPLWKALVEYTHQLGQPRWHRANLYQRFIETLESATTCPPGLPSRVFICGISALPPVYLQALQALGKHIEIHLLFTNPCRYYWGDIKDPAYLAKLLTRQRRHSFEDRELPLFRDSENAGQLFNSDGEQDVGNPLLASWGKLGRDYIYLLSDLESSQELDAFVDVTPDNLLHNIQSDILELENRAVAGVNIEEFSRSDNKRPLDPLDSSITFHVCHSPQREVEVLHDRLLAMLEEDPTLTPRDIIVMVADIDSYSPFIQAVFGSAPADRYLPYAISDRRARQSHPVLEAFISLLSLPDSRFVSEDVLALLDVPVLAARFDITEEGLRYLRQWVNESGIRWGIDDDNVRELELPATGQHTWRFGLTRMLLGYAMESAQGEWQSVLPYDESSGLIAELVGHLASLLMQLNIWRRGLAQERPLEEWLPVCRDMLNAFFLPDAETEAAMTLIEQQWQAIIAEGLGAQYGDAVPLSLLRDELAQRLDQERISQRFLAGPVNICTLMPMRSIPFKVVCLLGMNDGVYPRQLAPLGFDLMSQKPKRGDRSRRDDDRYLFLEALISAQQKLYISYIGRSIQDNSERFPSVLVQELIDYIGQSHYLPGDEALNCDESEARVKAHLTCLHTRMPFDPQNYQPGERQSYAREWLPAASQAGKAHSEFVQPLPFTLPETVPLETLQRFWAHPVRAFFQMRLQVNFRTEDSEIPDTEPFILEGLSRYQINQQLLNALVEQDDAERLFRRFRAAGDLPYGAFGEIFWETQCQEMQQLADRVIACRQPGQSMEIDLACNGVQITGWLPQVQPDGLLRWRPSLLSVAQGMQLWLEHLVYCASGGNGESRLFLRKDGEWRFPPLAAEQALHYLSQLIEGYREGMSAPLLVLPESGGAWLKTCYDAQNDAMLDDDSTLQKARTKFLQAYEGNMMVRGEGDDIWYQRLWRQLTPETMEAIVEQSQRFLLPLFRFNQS
T2 sequence (P08394 whole entry): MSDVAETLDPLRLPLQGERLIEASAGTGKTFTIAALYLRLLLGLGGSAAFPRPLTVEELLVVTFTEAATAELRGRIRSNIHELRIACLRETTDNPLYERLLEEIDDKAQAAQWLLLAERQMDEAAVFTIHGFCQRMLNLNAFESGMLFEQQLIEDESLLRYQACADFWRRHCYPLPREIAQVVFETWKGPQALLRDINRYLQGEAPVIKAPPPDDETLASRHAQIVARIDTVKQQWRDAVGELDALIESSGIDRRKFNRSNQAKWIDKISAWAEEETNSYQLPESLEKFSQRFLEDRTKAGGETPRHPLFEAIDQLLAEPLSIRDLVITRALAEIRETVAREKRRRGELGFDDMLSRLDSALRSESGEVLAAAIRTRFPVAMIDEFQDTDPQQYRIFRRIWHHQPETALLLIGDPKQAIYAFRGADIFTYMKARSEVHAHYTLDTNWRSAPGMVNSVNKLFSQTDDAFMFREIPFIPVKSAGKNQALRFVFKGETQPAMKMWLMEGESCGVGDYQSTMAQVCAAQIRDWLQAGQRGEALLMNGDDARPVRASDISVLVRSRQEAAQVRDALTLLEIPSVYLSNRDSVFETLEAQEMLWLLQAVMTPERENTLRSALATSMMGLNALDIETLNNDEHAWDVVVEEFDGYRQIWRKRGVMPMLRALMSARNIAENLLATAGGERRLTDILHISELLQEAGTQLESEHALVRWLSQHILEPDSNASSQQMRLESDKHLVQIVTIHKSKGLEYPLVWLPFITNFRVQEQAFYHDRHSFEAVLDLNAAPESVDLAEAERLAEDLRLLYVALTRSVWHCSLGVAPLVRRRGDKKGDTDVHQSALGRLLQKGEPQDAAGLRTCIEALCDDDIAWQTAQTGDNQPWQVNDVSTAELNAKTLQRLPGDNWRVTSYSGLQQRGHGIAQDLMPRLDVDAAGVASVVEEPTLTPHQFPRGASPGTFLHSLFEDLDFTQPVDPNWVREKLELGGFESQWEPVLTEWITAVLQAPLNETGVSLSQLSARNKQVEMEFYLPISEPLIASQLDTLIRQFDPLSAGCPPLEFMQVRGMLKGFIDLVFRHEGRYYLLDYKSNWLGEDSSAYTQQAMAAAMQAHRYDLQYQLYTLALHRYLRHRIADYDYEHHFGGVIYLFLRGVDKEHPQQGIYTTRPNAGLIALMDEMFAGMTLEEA

[4] = target: T3, Endoribonuclease toxin MazF (Escherichia coli K-12, UniProt P0AE70); test: fluorescent RNA oligo signal without MazF, dose response, counter-screen for MazEF activator project, biochemical, fluorescence, single-stranded RNase substrate (AID 588502); type: functional
T3 sequence (P0AE70 whole entry): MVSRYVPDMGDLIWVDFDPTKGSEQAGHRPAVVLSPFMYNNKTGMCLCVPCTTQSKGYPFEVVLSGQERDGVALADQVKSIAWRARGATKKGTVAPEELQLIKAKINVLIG

[5] = target: T3, Endoribonuclease toxin MazF; test: MazF toxin RNase activators, dose response, biochemical, fluorescence, single-stranded RNA substrate, uHTS hits (AID 588481); type: functional
INS1 = test: beta cell apoptosis inhibitors, cytokine rescue, dose response, luminescence, retest (AID 449756); type: functional, cell-based; details: Rattus norvegicus;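 note: cell death triggered by IL-1 beta plus TNF-alpha plus IFN-gamma mixture; protective hits raise ATP signal compared with cytokine alone wells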

Compound | EC50 [1] | CC50 [2] | EC50 (Streptokinase A) | IC50 [3] | EC50 (Streptococcus) | IC50 (Exodeoxyribonuclease V) | EC50 [4] | EC50 [5] | AC50 (INS1)
O=C(NC(NC(=S)Nc1ccc(Cl)c(Cl)c1)C(Cl)(Cl)Cl)c1ccco1 (stereo not drawn) | 4.32 µM (active) | 57.7 µM (active) | 10.9 µM (active) | > 119 µM (inactive) | 10.9 µM (active) | > 119 µM (inactive) | – | – | –
O=[N+]([O-])c1ccc2[nH]c(O)c(N=Nc3ccc(F)cc3)c2c1 | – | – | – | – | – | – | 20.3 µM (inactive) | > 99 µM (inactive) | –
Cc1cc(N/N=C/c2ccc([N+](=O)[O-])o2)nc2ccccc12 | – | – | – | > 118 µM (inactive) | – | > 118 µM (inactive) | – | – | –
C=CCc1cccc(/C=N/NC(=O)CCC(=O)Nc2ccc(F)cc2)c1O | – | – | – | > 119 µM (inactive) | – | > 119 µM (inactive) | – | – | 3.18 µM (active)

From ChEMBL document CHEMBL1201862, “PubChem BioAssay data set” (2004)
